In ChEMBL document CHEMBL3271942, “(Vinylaryloxy)acetic acids. A new class of diuretic agents. 2. (4-(3-Oxo-1-alkenyl)phenoxy)acetic acids” (1976):

Assays:
[1] = tested on: Canis familiaris; assay: Diuretic activity in mongrel dog assessed as urine volume at 10 mg/kg, iv measured after 15 and 45 mins (reference value: 1 to 2 ml/min); type: functional, Canis lupus familiaris
[2] = tested on: Canis familiaris; assay: Diuretic activity in mongrel dog assessed as excretion of chloride ion at 10 mg/kg, iv measured after 15 and 45 mins (reference value: 4 to 64 uequiv/min); type: functional, Canis lupus familiaris, Urine
[3] = tested on: Canis familiaris; assay: Diuretic activity in mongrel dog assessed as excretion of sodium ion at 10 mg/kg, iv measured after 15 and 45 mins (reference value: 13 to 54 uequiv/min); type: functional, Canis lupus familiaris, Urine
[4] = tested on: Canis familiaris; assay: Diuretic activity in mongrel dog assessed as excretion of potassium ion at 10 mg/kg, iv measured after 15 and 45 mins (reference value: 16 to 37 uequiv/min); type: functional, Canis lupus familiaris, Urine
[5] = tested on: Canis familiaris; assay: Diuretic activity in mongrel dog assessed as urine volume at 5 mg/kg, iv measured after 15 and 45 mins (reference value: 1 to 2 ml/min); type: functional, Canis lupus familiaris
[6] = tested on: Canis familiaris; assay: Diuretic activity in mongrel dog assessed as excretion of sodium ion at 5 mg/kg, iv measured after 15 and 45 mins (reference value: 5 to 99 uequiv/min); type: functional, Canis lupus familiaris, Urine
[7] = tested on: Canis familiaris; assay: Diuretic activity in mongrel dog assessed as excretion of potassium ion at 5 mg/kg, iv measured after 15 and 45 mins (reference value: 15 to 55 uequiv/min); type: functional, Canis lupus familiaris, Urine
[8] = tested on: Canis familiaris; assay: Diuretic activity in mongrel dog assessed as excretion of chloride ion at 5 mg/kg, iv measured after 15 and 45 mins (reference value: 7 to 13 uequiv/min); type: functional, Canis lupus familiaris, Urine
[9] = tested on: Canis familiaris; assay: Diuretic activity in mongrel dog assessed as excretion of potassium ion at 0.1 mg/kg, iv measured after 15 and 45 mins (reference value: 14 to 35 uequiv/min); type: functional, Canis lupus familiaris, Urine
[10] = tested on: Canis familiaris; assay: Diuretic activity in mongrel dog assessed as excretion of chloride ion at 0.1 mg/kg, iv measured after 15 and 45 mins (reference value: 14 to 48 uequiv/min); type: functional, Canis lupus familiaris, Urine
[11] = tested on: Canis familiaris; assay: Diuretic activity in mongrel dog assessed as excretion of sodium ion at 0.1 mg/kg, iv measured after 15 and 45 mins (reference value: 36 to 73 uequiv/min); type: functional, Canis lupus familiaris, Urine
[12] = tested on: Canis familiaris; assay: Diuretic activity in mongrel dog assessed as urine volume at 0.1 mg/kg, iv measured after 15 and 45 mins (reference value: 1 to 3 ml/min); type: functional, Canis lupus familiaris
[13] = tested on: Canis familiaris; assay: Diuretic activity in mongrel dog assessed as excretion of chloride ion at 1 mg/kg, iv measured after 15 and 45 mins (reference value: 10 to 26 uequiv/min); type: functional, Canis lupus familiaris, Urine
[14] = tested on: Canis familiaris; assay: Diuretic activity in mongrel dog assessed as excretion of sodium ion at 1 mg/kg, iv measured after 15 and 45 mins (reference value: 26 to 58 uequiv/min); type: functional, Canis lupus familiaris, Urine
[15] = tested on: Canis familiaris; assay: Diuretic activity in mongrel dog assessed as urine volume at 1 mg/kg, iv measured after 15 and 45 mins (reference value: 1 to 4 ml/min); type: functional, Canis lupus familiaris
[16] = tested on: Canis familiaris; assay: Diuretic activity in mongrel dog assessed as excretion of potassium ion at 1 mg/kg, iv measured after 15 and 45 mins (reference value: 46 to 28 uequiv/min); type: functional, Canis lupus familiaris, Urine
[17] = tested on: Canis familiaris; assay: Diuretic activity in mongrel dog assessed as urine volume per 6 hrs at 1 mg/kg, po (reference value: 180 ml); type: functional, Canis lupus familiaris
[18] = tested on: Canis familiaris; assay: Diuretic activity in mongrel dog assessed as excretion of chloride ion per 6 hrs at 1 mg/kg, po (reference value: 2 mequiv/min); type: functional, Canis lupus familiaris, Urine
[19] = tested on: Canis familiaris; assay: Diuretic activity in mongrel dog assessed as excretion of potassium ion per 6 hrs at 2 mg/kg, po (reference value: 1 mequiv/min); type: functional, Canis lupus familiaris, Urine
[20] = tested on: Canis familiaris; assay: Diuretic activity in mongrel dog assessed as excretion of sodium ion per 6 hrs at 2 mg/kg, po (reference value: 2 mequiv/min); type: functional, Canis lupus familiaris, Urine
[21] = tested on: Canis familiaris; assay: Diuretic activity in mongrel dog assessed as excretion of sodium ion per 6 hrs at 1 mg/kg, po (reference value: 2 mequiv/min); type: functional, Canis lupus familiaris, Urine
[22] = tested on: Canis familiaris; assay: Diuretic activity in mongrel dog assessed as urine volume per 6 hrs at 2 mg/kg, po (reference value: 180 ml); type: functional, Canis lupus familiaris
[23] = tested on: Canis familiaris; assay: Diuretic activity in mongrel dog assessed as excretion of potassium ion per 6 hrs at 1 mg/kg, po (reference value: 1 mequiv/min); type: functional, Canis lupus familiaris, Urine
[24] = tested on: Canis familiaris; assay: Diuretic activity in mongrel dog assessed as excretion of chloride ion per 6 hrs at 2 mg/kg, po (reference value: 2 mequiv/min); type: functional, Canis lupus familiaris, Urine
[25] = tested on: Canis familiaris; assay: Diuretic activity in mongrel dog assessed as excretion of chloride ion at 25 mg/kg, iv measured after 15 and 45 mins (reference value: 6 uequiv/min); type: functional, Canis lupus familiaris, Urine
[26] = tested on: Canis familiaris; assay: Diuretic activity in mongrel dog assessed as excretion of potassium ion at 25 mg/kg, iv measured after 15 and 45 mins (reference value: 42 uequiv/min); type: functional, Canis lupus familiaris, Urine
[27] = tested on: Canis familiaris; assay: Diuretic activity in mongrel dog assessed as excretion of sodium ion at 25 mg/kg, iv measured after 15 and 45 mins (reference value: 42 uequiv/min); type: functional, Canis lupus familiaris, Urine
[28] = tested on: Canis familiaris; assay: Diuretic activity in mongrel dog assessed as urine volume at 25 mg/kg, iv measured after 15 and 45 mins (reference value: 5 ml/min); type: functional, Canis lupus familiaris

Row | Structure (SMILES) | Activity [1] | Activity [2] | Activity [3] | Activity [4] | Activity [5] | Activity [6] | Activity [7] | Activity [8] | further results
1 | CC(=O)/C=C/c1ccc(OCC(=O)O)cc1 | 5 mL/min | 55 uEq/min | 91 uEq/min | 50 uEq/min | – | – | – | – | –
2 | CC(=O)/C=C/c1ccc(OCC(=O)O)c(Cl)c1Cl | – | – | – | – | 8 mL/min | 911 uEq/min | 76 uEq/min | 1078 uEq/min | –
3 | COc1cc(/C=C/C(C)=O)ccc1OCC(=O)O | – | – | – | – | 1 mL/min | 13 uEq/min | 36 uEq/min | 27 uEq/min | –
4 | O=C(O)COc1ccc(/C=C2\CCC2=O)c(Cl)c1Cl | 8 mL/min | 822 uEq/min | 833 uEq/min | 93 uEq/min | – | – | – | – | Activity [9]: 89 uEq/min; Activity [10]: 408 uEq/min; Activity [11]: 393 uEq/min; Activity [12]: 9 mL/min
5 | O=C(O)COc1ccc(/C=C2\CCCC2=O)c(Cl)c1Cl | – | – | – | – | – | – | – | – | Activity [13]: 330 uEq/min; Activity [14]: 298 uEq/min; Activity [15]: 4 mL/min; Activity [16]: 74 uEq/min
6 | CC(=O)/C(C)=C/c1ccc(OCC(=O)O)c(Cl)c1Cl | – | – | – | – | 10 mL/min | 1096 uEq/min | 132 uEq/min | 1140 uEq/min | Activity [17]: 422 mL; Activity [18]: 9 milliequivalent; Activity [19]: 3 milliequivalent; Activity [20]: 16 milliequivalent; Activity [21]: 9 milliequivalent; Activity [22]: 506 mL; Activity [23]: 5 milliequivalent; Activity [24]: 21 milliequivalent
7 | CCC(=O)/C(C)=C/c1ccc(OCC(=O)O)c(Cl)c1Cl | 2 mL/min | 67 uEq/min | 79 uEq/min | 42 uEq/min | – | – | – | – | –
8 | CC(=O)/C=C/c1ccc(OCC(=O)O)cc1Cl | 3 mL/min | 258 uEq/min | 265 uEq/min | 79 uEq/min | – | – | – | – | –
9 | CCC(=O)/C=C/c1ccc(OCC(=O)O)c(Cl)c1Cl | 8 mL/min | 1089 uEq/min | 973 uEq/min | 118 uEq/min | – | – | – | – | –
10 | C/C(C=O)=C\c1ccc(OCC(=O)O)c(Cl)c1Cl | – | – | – | – | 3 mL/min | 140 uEq/min | 51 uEq/min | 130 uEq/min | Activity [25]: 542 uEq/min; Activity [26]: 86 uEq/min; Activity [27]: 449 uEq/min; Activity [28]: 5 mL/min
11 | O=C(O)COc1ccc(/C=C2\CCCCC2=O)c(Cl)c1Cl | – | – | – | – | 12 mL/min | 1306 uEq/min | 119 uEq/min | 1340 uEq/min | –
12 | CC(=O)C(=Cc1ccc(OCC(=O)O)c(Cl)c1Cl)C(C)=O | – | – | – | – | – | – | – | – | Activity [15]: 11 mL/min; Activity [9]: 87 uEq/min; Activity [16]: 104 uEq/min; Activity [11]: 984 uEq/min; Activity [12]: 9 mL/min
13 | C=C(CC)C(=O)c1ccc(OCC(=O)O)c(Cl)c1Cl [ETHACRYNIC ACID] | 22 mL/min | 3324 uEq/min | 2989 uEq/min | 194 uEq/min | – | – | – | – | Activity [17]: 560 mL; Activity [18]: 26 milliequivalent; Activity [13]: 244 uEq/min; Activity [14]: 188 uEq/min; Activity [15]: 6 mL/min; Activity [21]: 21 milliequivalent; Activity [16]: 52 uEq/min; Activity [23]: 5 milliequivalent
14 | NS(=O)(=O)c1cc(C(=O)O)c(NCc2ccco2)cc1Cl [FUROSEMIDE] | – | – | – | – | – | – | – | – | Activity [17]: 624 mL; Activity [18]: 18 milliequivalent; Activity [21]: 19 milliequivalent; Activity [23]: 4 milliequivalent
